# Source: PubChem BioAssay (NCI)
# Where “and” joins values, the source holds several entries; their conditions need not be identical. Equal values may be shown once.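 Results reflect a 48-hour exposure of cells in 96-well plates to compound at five concentrations. GI50 marks 50% less growth. The concentration for full growth arrest is given as TGI.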
# Experiments:
# Assay in all cases: NCI-60 cell line screen, 48 h
# 786-0 renal = tested on: 786-0 renal
# A498 renal = tested on: A498 renal
# MOLT-4 leukemia = tested on: MOLT-4 leukemia
# OVCAR-3 ovarian = tested on: OVCAR-3 ovarian
# OVCAR-4 ovarian = tested on: OVCAR-4 ovarian
# SK-MEL-5 melanoma = tested on: SK-MEL-5 melanoma
# SNB-19 CNS = tested on: SNB-19 CNS
# SR leukemia = tested on: SR leukemia
# UACC-257 melanoma = tested on: UACC-257 melanoma
# UO-31 renal = tested on: UO-31 renal
Structure (SMILES),TGI (786-0 renal) [µM],TGI (A498 renal),TGI (MOLT-4 leukemia) [µM],TGI (OVCAR-3 ovarian) [µM],TGI (OVCAR-4 ovarian) [µM],TGI (SK-MEL-5 melanoma),TGI (SNB-19 CNS) [µM],TGI (SR leukemia) [µM],TGI (UACC-257 melanoma),TGI (UO-31 renal) [µM],GI50 (786-0 renal),GI50 (A498 renal),GI50 (MOLT-4 leukemia),GI50 (OVCAR-3 ovarian),GI50 (OVCAR-4 ovarian),GI50 (SK-MEL-5 melanoma),GI50 (SNB-19 CNS),GI50 (SR leukemia),GI50 (UACC-257 melanoma),GI50 (UO-31 renal)
Cn1c(=O)c2c3oc(=O)cc(O)c3c(=O)n3c4ccccc4n(c1=O)c23,> 100,> 100 µM,> 100,78.6,> 100,81 µM,> 100,> 100,82.9 µM,> 100,–,–,–,–,–,–,–,–,–,–
CC1=CC2=C(C)C3(CC3)[C@@](C)(O)C(=O)C2=C1,0.517,0.505 µM,> 1,0.352,0.356,0.294 µM,0.545,> 1,0.578 µM,0.337,–,–,–,–,–,–,–,–,–,–
Cn1c(=O)n(-c2ccc(C(C)(C)C#N)cc2)c2c3cc(-c4cnc5ccccc5c4)ccc3ncc21,–,0.007 µM and 0.0306 µM,–,–,–,0.0911 µM and 0.106 µM and 0.0859 µM,> 100,> 100,0.0493 µM and 0.436 µM and 0.0457 µM,0.0749,< 0.0118 µM and 0.00542 µM and < 0.01 µM,< 10 nM and 3.65 nM,25 nM and 7.03 nM and 14.8 nM,< 10 nM and 6.09 nM and 10.1 nM,0.0162 µM and 0.00409 µM and 0.01 µM,15.4 nM and 6.46 nM and < 15.2 nM,12 nM and 6.05 nM and 10.2 nM,38.6 nM and 5.51 nM and < 13.7 nM,< 0.0105 µM and 0.00672 µM and < 0.01 µM,< 0.01 µM and 0.00361 µM
Cc1c(C(C)C)cc(OCCO)cc1C(C)C,63,96.6 µM,> 100,> 100,> 100,38.1 µM,> 100,73.8,> 100 µM,> 100,–,–,–,–,–,–,–,–,–,–
COC(=O)c1c(C)oc2ccc(OC(C)=O)cc12,> 100,> 100 µM,> 100,> 100,> 100,> 100 µM,> 100,> 100,> 100 µM,> 100,–,–,–,–,–,–,–,–,–,–
CC[C@]12C=CCN3CC[C@]4(C(=C(C(=O)OC)C1)Nc1cc(O)ccc14)[C@@H]32,40.8,36.5 µM,74.2,33.9,76.4,28.3 µM,44.2,> 100,85.9 µM,25.8,15.7 µM,18100 nM,21600 nM,17700 nM,22 µM,14800 nM,18000 nM,12300 nM,25.8 µM,12.9 µM
COc1ccc2cccc(C(=N)c3ccc(C)c4c3CCC4)c2c1,21.9,5.87 µM,26.1,17.6,24.9,14.8 µM,23.3,9.03,18.2 µM,16.2,–,–,–,–,–,–,–,–,–,–
CC(=O)NC1C(OCc2ccccc2)OC(COC(=O)CCCCCCCCCCNC(=O)c2cccc3c(=O)c4ccccc4[nH]c23)C(O)C1OC(C)C(=O)NC(C)C(=O)NC(CCC(N)=O)C(N)=O (stereo not given),> 100,> 100 µM,> 100,> 100,> 100,> 100 µM,> 100,> 100,> 100 µM,> 100,–,–,–,–,–,–,–,–,–,–
CCN(CC)CCC(=O)Nc1ccc(Cn2nnc3c2C(=O)c2nnn(Cc4ccc(NC(=O)CCN(CC)CC)cc4)c2C3=O)cc1,> 72.3,9.49 µM,0.628,0.778,0.263,1.25 µM,0.373,5,2.79 µM,> 61.8,8.97 µM,2450 nM,242 nM,265 nM,0.133 µM,485 nM,186 nM,507 nM,1.01 µM,> 41.1 µM
N#Cc1c2c(c(N=[N+]=[N-])n3c1nc1ccccc13)CCCC2,3.53,6.1 µM,5.37,10.3,5.33,32.3 µM,7.84,> 100,3.12 µM,4.55,–,–,–,–,–,–,–,–,–,–
Cc1ccc(NC(=O)CCC(=O)C2CC(=O)CC/C2=N\NC(=O)c2cc3ccccc3cc2O)cc1C (stereo not given),> 100,> 100 µM,99.6,45.6,51.4,29.6 µM,> 100,97.4,61.7 µM,59.3,–,–,–,–,–,–,–,–,–,–
COc1ccc([Se]c2ccc(OC)cc2OC)c(OC)c1,> 100,70.3 µM,> 100,> 100,> 100,93.4 µM,> 100,45.7,> 100 µM,65.8,–,–,–,–,–,–,–,–,–,–
COc1ccccc1C(=O)c1cnc(NC2CCN(S(C)(=O)=O)CC2)nc1N,> 25,22 µM,> 25,> 25,> 25,> 25 µM,> 25,> 19.5,> 25 µM,> 25,8.15 µM,6000 nM,6430 nM,9150 nM,12.4 µM,4840 nM,4710 nM,2000 nM,11.6 µM,7.43 µM
CCOC(=O)c1[nH]c2c(c1C)-c1[nH]c(=O)c(S(=O)(=O)c3ccccc3)cc1SC2,> 100,> 100 µM,> 100,> 100,86.5,> 100 µM,> 100,> 100,> 100 µM,> 100,46.3 µM,1680 nM,15700 nM,31600 nM,28.8 µM,37400 nM,81100 nM,30300 nM,67.1 µM,> 100 µM
CCCC/C(=N\N=C(N)N)c1ccc(F)cc1,16.2,8.08 µM,24.4,9.5,20,4.27 µM,13.8,11.9,13.9 µM,20.1,3.93 µM,2590 nM,3350 nM,2900 nM,5.27 µM,1480 nM,2640 nM,481 nM,4.4 µM,5.28 µM
c1ccc(SCCCC(Sc2ccccc2)Sc2ccccc2)cc1,> 100,> 100 µM,> 100,> 100,> 100,> 100 µM,> 100,> 100,> 100 µM,> 100,–,–,–,–,–,–,–,–,–,–
N#CC1c2ccccc2-c2ccccc2N1C(=O)c1ccccc1 (stereo not given),> 88.1,5.55 µM,> 100,2.47,> 72.3,4.84 µM,> 100,–,> 54.5 µM,> 59.4,3.53 µM,1320 nM,1730 nM,748 nM,3.29 µM,1550 nM,4120 nM,2920 nM,5.32 µM,3.63 µM
